Measurements taken from patent EP3381907A1, “SYMMETRICAL 2-AMINOPHENYL-BENZAZOLYL-5-ACETATE COMPOUNDS AND THEIR USE AS ANTI-HEPARANASE” (Leadiant Biosciences SA, priority 2017, dated 2018).

What was measured:
heparanase = molecular target: T1, heparanase (Homo sapiens, UniProt Q9Y251); experiment: AGA*IA assay: colorimetric fondaparinux cleavage assay for heparanase inhibition (WST-1); assay type: biochemical; conditions: 2.5 nM heparanase, 100 µM fondaparinux, pH 5.0, 3 h at 37°C; class symbols
T1 sequence (Q9Y251 158-543 limits assumed): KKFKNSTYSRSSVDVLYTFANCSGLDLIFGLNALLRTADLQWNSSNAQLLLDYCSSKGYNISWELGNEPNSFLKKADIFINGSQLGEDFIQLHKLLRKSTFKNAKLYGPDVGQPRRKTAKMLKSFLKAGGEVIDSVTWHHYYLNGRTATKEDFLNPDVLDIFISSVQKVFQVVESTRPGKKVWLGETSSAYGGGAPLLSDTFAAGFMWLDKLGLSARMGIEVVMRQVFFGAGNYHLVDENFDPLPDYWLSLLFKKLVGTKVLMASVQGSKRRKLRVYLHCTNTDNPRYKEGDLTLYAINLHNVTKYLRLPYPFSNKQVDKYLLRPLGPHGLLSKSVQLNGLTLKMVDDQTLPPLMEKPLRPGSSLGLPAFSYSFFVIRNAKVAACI
T1 sequence (Q9Y251 36-109 limits assumed): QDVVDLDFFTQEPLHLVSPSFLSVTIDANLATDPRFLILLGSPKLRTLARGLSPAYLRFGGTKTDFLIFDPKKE
Experimental: All compounds were tested in a simple, accurate and robust microplate assay based on the cleavage of the synthetic heparin fragment, the pentasaccharide Fondaparinux (AGA*IA). This assay was originally developed by Hammond and coworkers [Hammond E, Li CP, Ferro V. Development of a colorimetric assay for heparanase activity suitable for kinetic analysis and inhibitor screening. Anal. Biochem. 396(1), 112-116 (2010)], where Fondaparinux corresponds to the methyl glycoside of the antithrombin III (ATIII)-activating pentasaccharide sequence of heparin. Fondaparinux is cleaved by heparanase to generate a reducing disaccharide, which can be quantitatively measured via a colorimetric or a fluorescence assay, the last by the fluorescent sensor polymer-H [Schiemann S, Lühn S, Alban S. Development of both colorimetric and fluorescence heparinase activity assays using fondaparinux as substrate. Anal. Biochem. 427(1), 82-89 (2012)].
The assay measures the appearance of the disaccharide product of heparanase-catalyzed fondaparinux cleavage colorimetrically using the tetrazolium salt WST-1. Assay was essentially performed as described with minor modifications. Briefly, NUNC ELISA 96-well plates were pre-treated with a solution of 4% BSA (bovin serum albumin) in phosphate-buffered saline containing 0.05% Tween 20 (PBST), for 2 h at 37°C, then washed three times with PBST, dried by tapping on paper towel and stored at -20°C. Before use, once again, the plates were washed with PBST.
Assay was carried out with 100 µl/well of assay solution containing 40 mM sodium acetate buffer (pH 5.0), 100 µM fondaparinux, 2.5 nM heparanase and serial dilutions of test compounds (tested in triplicate). Plates were sealed with adhesive tape and incubated, in the dark, for 3 h at 37°C, followed by development with 1.69 mM of the tetrazolium salt WST-1 solution in 0.1 M NaOH, for 1 h at 60°C. Then, the absorbance at 560 nm was measured through a microplate reader (Victor 3, Perkin Elmer).
Finally, the measurements were corrected by subtracting both the reagent background and the inner absorbance value of test compound.

[1] = tested on: HT1080 (human fibrosarcoma); experiment: SRB Cell Cytotoxicity Assay, HT1080; assay type: cell-based; conditions: HT-1080, HT1080, 72h treatment, read-out: Concentration (µM) of test compounds at which the cell growth is inhibited by 50 %. HT1080
Text: (§1) SRB Cell Cytotoxicity Assay is an assay based upon the quantitative staining of cellular proteins by sulforhodamine B (SRB). This assay can be used for high-throughput drug screening (Vichai & Kirkitara, Nature Protocol. 2006, 1, 112). Sulforhodamine B is an anionic aminoxanthene dye that forms an electrostatic complex with the basic amino acid residues of proteins under moderately acid conditions, which provides a sensitive linear response.
(§2) To assess a putative antiproliferative activity of the selected compounds, HT1080 (human fibrosarcoma), U87MG (human glioblastoma astrocytoma) and U2OS (human osteosarcoma) cell lines were treated for 72h, in triplicate, with increasing concentrations of heparanase inhibitors. Inhibition of cell proliferation was then measured by the classical colorimetric SRB Cell Cytotoxicity assay. Absorbance was measured by spectrophotometer at a wavelength of 510 nm and cell proliferation was determined as percent with respect to control cells (cells treated with the vehicle alone). EC50 values were then determined by GraphPad Prism.

[2] = tested on: U87MG (human glioblastoma astrocytoma); experiment: SRB Cell Cytotoxicity Assay, U87MG; assay type: cell-based; conditions: U-87 MG, 72h treatment, read-out: Concentration (µM) of test compounds at which the cell growth is inhibited by 50 %. U87MG
Text: as §1, §2

[3] = tested on: U2OS (human osteosarcoma); experiment: SRB Cell Cytotoxicity Assay, U2OS; assay type: cell-based; conditions: 72h treatment, read-out: Concentration (µM) of test compounds at which the cell growth is inhibited by 50 %. U2OS
Text: as §1, §2

SMILES	IC50 (heparanase) [µM]	EC50 [1] [µM]	EC50 [2] [µM]	EC50 [3] [µM]
O=C(O)Cc1ccc2[nH]c(-c3ccc(NC(=O)Nc4ccc(-c5nc6cc(CC(=O)O)ccc6[nH]5)cc4F)c(F)c3)nc2c1 [Compound 4, 2,2'-(((Carbonylbis(azanediyl))bis(3-fluoro-4,1-phenylene))bis(1H-benzo[d]imidazole-2,5-diyl))diacetic acid]	0.5 to 0.99	–	–	–
O=C(O)CNC(=O)Cc1ccc2[nH]c(-c3ccc(NC(=O)Nc4ccc(-c5nc6cc(CC(=O)NCC(=O)O)ccc6[nH]5)cc4F)c(F)c3)nc2c1 [Compound 7, 2,2'-((2,2'-(((carbonylbis(azanediyl))bis(3-fluoro-4,1-phenylene))bis(1H-benzo[d]imidazole-2,5-diyl))bis(acetyl))bis(azanediyl))diacetic acid]	1 to 20	–	–	–
O=C(Cc1ccc2[nH]c(-c3ccc(NC(=O)Nc4ccc(-c5nc6cc(CC(=O)N[C@@H](Cc7ccccc7)C(=O)O)ccc6[nH]5)cc4F)c(F)c3)nc2c1)N[C@@H](Cc1ccccc1)C(=O)O [Compound 8, (2S,2'S)-2,2'-((2,2'-(((Carbonylbis(azanediyl))bis(3-fluoro-4,1-phenylene))bis(1H-benzo[d]imidazole-2,5-diyl))bis(acetyl))bis(azanediyl))bis(3-phenylpropanoic acid)]	0.5 to 0.99	–	–	–
O=C(Cc1ccc2[nH]c(-c3ccc(NC(=O)Nc4ccc(-c5nc6cc(CC(=O)NCB(O)O)ccc6[nH]5)cc4F)c(F)c3)nc2c1)NCB(O)O [Compound 9, (((2,2'-(((Carbonylbis(azanediyl))bis(3-fluoro-4,1-phenylene))bis(1H-benzo[d]imidazole-2,5-diyl))bis(acetyl))bis(azanediyl))bis(methylene))diboronic acid]	1 to 20	–	–	–
O=C(O)Cc1ccc2[nH]c(-c3ccc(NC(=S)Nc4ccc(-c5nc6cc(CC(=O)O)ccc6[nH]5)cc4F)c(F)c3)nc2c1 [Compound 12, 2,2'-(((Thiocarbonylbis(azanediyl))bis(3-fluoro-4,1-phenylene))bis(1H-benzo[d]imidazole-2,5-diyl))diacetic acid]	0.5 to 0.99	–	–	–
O=C(O)Cc1ccc2oc(-c3ccc(NC(=O)Nc4ccc(-c5nc6cc(CC(=O)O)ccc6o5)cc4)cc3)nc2c1 [Compound 19, 2,2'-(((Carbonylbis(azanediyl))bis(4,1-phenylene))bis(benzo[d]oxazole-2,5-diyl))diacetic acid]	1 to 20	> 10	> 10	> 10
O=C(Cc1ccc2oc(-c3ccc(NC(=O)Nc4ccc(-c5nc6cc(CC(=O)N[C@@H](Cc7ccccc7)C(=O)O)ccc6o5)cc4F)c(F)c3)nc2c1)N[C@@H](Cc1ccccc1)C(=O)O [Compound 26, (2S,2'S)-2,2'-((2,2'-(((Carbonylbis(azanediyl))bis(3-fluoro-4,1-phenylene))bis(benzo[d]oxazole-2,5-diyl))bis(acetyl))bis(azanediyl))bis(3-phenylpropanoic acid)]	0.5 to 0.99	> 10	> 10	> 10
CC(C)CCNC(=O)Cc1ccc2oc(-c3ccc(NC(=O)Nc4ccc(-c5nc6cc(CC(=O)NCCC(C)C)ccc6o5)cc4F)c(F)c3)nc2c1 [Compound 28, 2,2'-(((Carbonylbis(azanediyl))bis(3-fluoro-4,1-phenylene))bis(benzo[d]oxazole-2,5-diyl))bis(N-isopentylacetamide)]	1 to 20	–	–	–
CC(C)C[C@H](NC(=O)Cc1ccc2oc(-c3ccc(NC(=O)Nc4ccc(-c5nc6cc(CC(=O)N[C@@H](CC(C)C)B(O)O)ccc6o5)cc4F)c(F)c3)nc2c1)B(O)O [Compound 31, (1R,1'R)-(((2,2'-(((Carbonylbis(azanediyl))bis(3-fluoro-4,1-phenylene))bis(benzo[d]oxazole-2,5-diyl))bis(acetyl))bis(azanediyl))bis(3-methylbutane-1,1-diyl))diboronic acid]	1 to 20	–	–	–
O=C(O)Cc1ccc2oc(-c3ccc(NC(=S)Nc4ccc(-c5nc6cc(CC(=O)O)ccc6o5)cc4)cc3)nc2c1 [Compound 33, 2,2'-(((thiocarbonylbis(azanediyl))bis(4,1-phenylene))bis(benzo[d]oxazole-2,5-diyl))diacetic acid]	1 to 20	–	–	–
O=C(O)Cc1ccc2oc(-c3ccc(NC(=S)Nc4ccc(-c5nc6cc(CC(=O)O)ccc6o5)cc4F)c(F)c3)nc2c1 [Compound 36, 2,2'-(((Thiocarbonylbis(azanediyl))bis(3-fluoro-4,1-phenylene))bis(benzo[d]oxazole-2,5-diyl))diacetic acid]	1 to 20	–	–	–
O=C(O)CNC(=O)Cc1ccc2oc(-c3ccc(NC(=S)Nc4ccc(-c5nc6cc(CC(=O)NCC(=O)O)ccc6o5)cc4F)c(F)c3)nc2c1 [Compound 38, 2,2'-((2,2'-(((Thiocarbonylbis(azanediyl))bis(3-fluoro-4,1-phenylene))bis(benzo[d]oxazole-2,5-diyl))bis(acetyl))bis(azanediyl))diacetic acid]	0.05 to 0.49	> 10	> 10	> 10
N=C(Nc1ccc(-c2nc3cc(CC(=O)O)ccc3o2)cc1)Nc1ccc(-c2nc3cc(CC(=O)O)ccc3o2)cc1 [Compound 40, 2,2'-((((Iminomethylene)bis(azanediyl))bis(4,1-phenylene))bis(benzo[d]oxazole-2,5-diyl))diacetic acid]	1 to 20	–	–	–
